In this assay the test system is MCF-7 cells. In words: 3H-thymidine incorporation cell growth assay, MCF-7. The assay is classed as cell-based, Human.
The mark [1] stands for this setting: daunorubicin bound to metal-transferrin by glutaraldehyde, read-out: IC50 of Drugs bound by a Glutaraldehyde Reaction to the Surface of Transferrin (M): Daunorubicin.
[2] abbreviates: metal-transferrin without drug, read-out: IC50 of Drugs bound by a Glutaraldehyde Reaction to the Surface of Transferrin (M): No Drug.

Consider five substances from patent publication US9333189B2, “Taxane- and taxoid-protein compositions” (ONCBIOMUNE, INC., priority 2010, dated 2016).

Like-named read-outs stand apart in the source and are kept apart here.

A word on the IC50: it is the concentration that inhibits the measured activity by half.

Experimental: Human cancer cell lines were obtained from the American Type Culture Collection (Rockville, Md.); the NCI/Adr-Res cell line came from the National Cancer Institute (Bethesda, Md.). The cancer cell lines were maintained in alpha-MEM supplemented with 10% fetal calf serum, 1 mM glutamine and 0.05 mg/mL gentamicin (Life Technologies, Inc., Frederick, Md.) in 5% CO2 at 37° C. Cells were removed from cell culture flask or plate by trypsin-EDTA (0.05% trypsin and 0.53 mM EDTA) digestion.
Cell growth was measured with a ^3[H]-thymidine incorporation assay. Cancer cells were plated into each well of a 96-well cell culture plate as noted in Table 2 (e.g., MCF-7 cells were plated at 3000 cells/well) and incubated overnight. Culture media was replaced with media containing increasing concentrations of transferrin based drugs, and the cells were incubated with these drugs for 3 days. Then, ^3[H]-thymidine (0.1 uCi/well) was added to each well for the last 16 hours of incubation. The cells were removed from the plate by trypsin-EDTA digestion and harvested onto a glass-fiber filter (Skatron basic96 Harvester, Shatron Inc., Sterling, Va.). The radioactivity incorporated into the cellular DNA was determined by liquid scintillation counting (LS 6500, Beckman Co., Fullerton, Calif.). Cell proliferation was quantitated by ^3[H]-thymidine incorporation and expressed as a percentage of the untreated control. The experiments were repeated a minimum of three times independently.

On to “In-tf Daunorubicin: Daunorubicin bound by a glutaraldehyde reaction to the surface of indium-transferrin”, for which the IC50 under setting [1] stood at 2.7e-08 M.
In the case of In-tf: Indium-transferrin, no drug, the IC50 under setting [2] worked out at 2.7e-06 M.
The same measure, in the same setting: the value for “Ga-tf: Human transferrin loaded with gallium, no drug” was 3.4e-06 M.
“Ga-tf Daunorubicin: Daunorubicin bound by a glutaraldehyde reaction to the surface of gallium-transferrin”: the 50% inhibitory concentration (IC50) under setting [1] was 3.6e-07 M.
On to “Fe-tf Daunorubicin: Daunorubicin bound by a glutaraldehyde reaction to the surface of iron-transferrin”, for which, under setting [1], the IC50 came to 2.2e-07 M.
